Tests used:
[1] = Solubility in saline; assay type: physicochemical
[2] = test system: primary hTM cells; experiment: CellTox Green cytotoxicity assay in hTM cells; assay type: cell-based; details: 24 h, 48 h, 72 h
From the text: Commercially available RealTime-Glo™ MT cell viability (Promega, catalog #G9712) and CellTox™ Green cytotoxicity (Promega, catalog #G8731) assays were used in assessing effect of compounds on primary hTM cell viability and cytotoxicity. The RealTime-Glo™ MT cell viability assay is a nonlytic, homogeneous, bioluminescent method that determines the number of viable cells in culture by measuring the reducing potential of cells and thus metabolism (MT). Viable cells reduce the proprietary pro-substrate to generate a substrate for NanoLuc® luciferase. This substrate diffuses from cells into the surrounding culture medium, where it is rapidly used by the NanoLuc® Enzyme to produce a luminescent signal. In a contrasting and complementary manner, CellTox™ Green cytotoxicity assay measures changes in membrane integrity that occur as a result of cell death. This assay system uses a proprietary asymmetric cyanine dye that is excluded from viable cells but preferentially stains the dead cells' DNA. […]
Human™ cells were cultured and maintained as described in Example 12. […] Light emitted by luciferase and fluorescence emitted by dye binding to DNA (excitation 485 nm and emission 525 nm) were measured at 24 h, 48 h, and 72 h after incubation using plate based luminescence and fluorescence plate readers.

[3] = test system: Phospho-MYPT1 Thr853; experiment: Inhibition of MYPT1 phosphorylation in human trabecular meshwork (hTM) cells, western blot
Description: The outflow of aqueous humor across the trabecular meshwork (TM) is regulated by, among other factors, actomyosin contraction of the TM cells and altered extracellular matrix. ROCK is known to inhibit the phosphatase activity of myosin light chain phosphatase (MLCP) by phosphorylating MYPT1 at amino acids Thr696 and Thr853. […] Media with inhibitors was suctioned off, wells washed 2 times with cold PBS pH 7.4 buffer, and attached cells were scrapped off with 500 μl (T75 flasks) or 100 μl (6-well plates) SDS-PAGE sample buffer, and collected into 1.5 ml microcentrifuge tubes. • 5.
Two days before compound addition 6-well plates were seeded at a density of 75,000 cells/well. On the day of compound addition media was replaced with 3 ml fresh media containing compounds at different concentration. Fifteen hours after compound addition cells in each well were lysed with 0.2 ml extraction buffer (SDS-PAGE sample buffer containing […] and protease inhibitors) and extracts were collected.
Compounds (10 μM) were added to hTM cells cultured in 60 mm plates and cell extracts collected after […]. Cells were lysed with 0.2 ml lysis buffer and 20 μl extract was loaded in each lane (FIG. 7).

[4] = test system: HEK293 cells; experiment: CellTiter-Glo Luminescent Cell Viability Assay; details: HEK293 cells, two days
Description: We used CellTiter-Glo® Luminescent Cell Viability Assay (Promega, cat #G7573) to determine the number of viable cells in culture based on quantitation of the ATP present, which signals the presence of metabolically active cells. • 1. Prepared HEK293 suspension culture cells (ThermoFisher, cat #A14635) and added 50 μl cells in media (12,500 cells) to each well of a white, opaque-walled 96-well plate in triplicate. • 2. […] Incubated at 37° C. and 5% CO2 for two days. • 4. Added 100 μl of CellTiter-Glo® Reagent to each well and mix contents for 2 minutes on an orbital shaker to induce cell lysis. • 5. Recorded luminescence using a plate luminometer.

[5] = test system: New Zealand White rabbits; details: 0.1 ml of 5 mg/ml
From the text: The right eye that was not treated served as the control. […] The eyes of initial and confirmatory test animals were examined with slit lamp for ocular lesions. […] The animals were also observed for clinical signs of toxicity, morbidity and mortality.

[6] = test system: hTM cells; experiment: hTM cell morphology changes (microscopy); details: for hTM cell morphology: 20 hours
[7] = test system: primary hTM cells; experiment: RealTime-Glo MT cell viability assay in hTM cells; assay type: cell-based; details: for Cell viability compared to DMSO controls: 30 uM and 10 μm; for Cell viability: 3.33 μm
From the text: Commercially available RealTime-Glo™ MT cell viability (Promega, catalog #G9712) and CellTox™ Green cytotoxicity (Promega, catalog #G8731) assays were used in assessing effect of compounds on primary hTM cell viability and cytotoxicity. The RealTime-Glo™ MT cell viability assay is a nonlytic, homogeneous, bioluminescent method that determines the number of viable cells in culture by measuring the reducing potential of cells and thus metabolism (MT). Viable cells reduce the proprietary pro-substrate to generate a substrate for NanoLuc® luciferase. This substrate diffuses from cells into the surrounding culture medium, where it is rapidly used by the NanoLuc® Enzyme to produce a luminescent signal. In a contrasting and complementary manner, CellTox™ Green cytotoxicity assay measures changes in membrane integrity that occur as a result of cell death. This assay system uses a proprietary asymmetric cyanine dye that is excluded from viable cells but preferentially stains the dead cells' DNA. The fluorescent signal produced by the dye binding to the dead-cell DNA is proportional to cytotoxicity.
Human™ cells were cultured and maintained as described in Example 12. Fifty μl cells (600 cells) in culture media containing compound, 25 μl media with RealTime-Glo™ MT cell viability assay reagent and 25 μl media with CellTox™ Green cytotoxicity assay reagent were plated in black, clear bottom 96-well plates. Light emitted by luciferase and fluorescence emitted by dye binding to DNA (excitation 485 nm and emission 525 nm) were measured at 24 h, 48 h, and 72 h after incubation using plate based luminescence and fluorescence plate readers.

With `Cc1ccc(C(=O)OCc2ccc([C@@H](CN)C(=O)Nc3ccc4cnccc4c3)cc2)c(C)c1.Cl.Cl` [Netarsudil.2HCl] the solubility in saline [1] was at most 5000 µg/mL, the “Cytotoxicity / membrane integrity (in words)” value [2] was “concentration dependent” and the “Inhibition of MYPT1 Thr853 phosphorylation (western blot)” value ([3]; 2.5 μM inhibitors) was “inhibited phosphorylation of MYPT1”. For the same compound, the “Inhibition of MYPT1 Thr853 phosphorylation (western blot)” value ([3]; 10 μM inhibitors, 7 hours) was “completely inhibited MYPT1 phosphorylation”, the “Amount of protein in lane (toxicity)” value ([3]; 10 μM, fifteen hours) was “much lower amount of protein because of toxicity” and the “reduction in ATP levels” value ([4]; 2.5 μM) was 80%. The “reduction in ATP levels” value ([4]; 25 μM) was 96%, the eye irritation classification [5] was “irritating” and the “mean score Iris” value [5] was 2.0. The “mean score conjunctival oedema (chemosis)” value [5] was 4.0, the “mean score conjunctival redness” value [5] was 3.0 and the “mean score corneal opacity” value [5] was 3.0. The hTM cell morphology ([6]; 10 μM) was “became small and round”, the hTM cell morphology ([6]; […] and 3.3 μM) was “started contracting and detaching from plate” and the cellular morphological changes ([6]; hTM cells, 30, 10, 3.33, or 1.11 μM, 24 hours) was “affected cell morphology starting at 1.11 μM showing cell contraction and becoming round and small at 10 μM”. The reduction in viability ([7]; 1.11 μM) was 10%, the “Cell viability compared to DMSO controls” value ([7]; within 24 h) was under 2% and the “Cell viability compared to DMSO controls” value ([7]; within 48 h) was under 0.1%. It also gave a Cell viability ([7]; 24 h) of 53%, a Cell viability ([7]; 48 h) of 15% and a Cell viability ([7]; 72 h) of 9%.

From US12479866B2, “Boron-containing rho kinase inhibitors” (Percipiad, Inc., priority 2019, dated 2025)
